{"source": "patent EP2177533A1", "about": "“Multiple N-methylated cyclic hexapeptides for treatment of neurogenic inflammation” (TU München, priority 2008, dated 2010)", "key": {"[1]": {"conditions": "cited from earlier work"}, "[2]": {"conditions": "cited from earlier work", "remark": "listed apart in the source"}, "[3]": {"test_system": "1% mustard oil-induced neurogenic plasma protein extravasation in the rat paw skin", "format": "in vivo", "conditions": "100 µg/kg i.p., 10 min before induction of inflammation; rat hindpaw dorsal skin", "method": "• Figure 1 provides a graphical representation of the effect of some compounds of the present invention on electrical field stimulation (EFS; 40 V, 0.1 ms, 10 Hz for 120 s; 1200 pulses)-induced calcitonin gene-related (CGRP) release from sensory fibres of the isolated rat tracheae. Each column represents the mean±s.e.m. CGRP concentration measured in the incubation medium of the prestimulated, stimulated and poststimulated 8-minute fractions of n = 5 experiments (5 x 2 tracheae/group). Analogs were added to the incubation medium (500 nM) at the beginning of the second and third fractions. *P<0.05, **P<0.01, vs. respective fraction of the control experiment (Mann-Whitney U-test). • Figure 2 provides a graphical representation of the effect of small peptide somatostatin analogs on 1% mustard oil-induced acute neurogenic plasma protein extravasation in the dorsal skin of the rat paw. Each column represents the mean±s.e.m. Evans blue accumulation per g wet skin of n = 6-10 experiments. […]\nTo confirm the findings of this in vitro study, a further in vivo activity test was performed: Compounds of the invention were examined on 1% mustard oil-induced neurogenic plasma protein extravasation in the rat paw skin.\nBoth hindlegs of the rats were acutely denervated (the sciatic and the saphenous nerves were cut 30 min before the induction of inflammation) under sodium pentobarbitone (Nembutal, 40 mg/kg i.p.) anaesthesia to avoid central reflexes. Acute neurogenic inflammation in the dorsal skin of the hindpaws was evoked by topical application of 1 % mustard oil dissolved in paraffin oil. Extravasation of plasma albumin was measured by the Evans blue leakage method. Evans blue (50 mg/kg) was injected i.v. and neurogenic inflammation was induced 10 min later. Rats were killed by exsanguination 20 min after mustard oil application. […] The amount of the accumulated Evans blue, which quantitatively correlates with the intensity of plasma extravasation, was expressed as µg dye/g wet tissue (Helyes et al., 1997; Helyes et al., 2001). […]"}, "[4]": {"test_system": "peripheral terminals of sensory nerves of the isolated rat trachea", "test": "Electrical field stimulation-induced CGRP release from sensory nerve terminals of the isolated rat trachea (RIA)", "conditions": "500 nM; for EFS-evoked increase in the outflow of CGRP: stimulated and post-stimulated fractions vs control; for CGRP release in % compared to the prestimulated fraction: total CGRP release in stimulated and poststimulated fractions together vs basal outflow, n=5, mean with spread", "method": "• Figure 1 provides a graphical representation of the effect of some compounds of the present invention on electrical field stimulation (EFS; 40 V, 0.1 ms, 10 Hz for 120 s; 1200 pulses)-induced calcitonin gene-related (CGRP) release from sensory fibres of the isolated rat tracheae. Each column represents the mean±s.e.m. CGRP concentration measured in the incubation medium of the prestimulated, stimulated and poststimulated 8-minute fractions of n = 5 experiments (5 x 2 tracheae/group). Analogs were added to the incubation medium (500 nM) at the beginning of the second and third fractions. *P<0.05, **P<0.01, vs. respective fraction of the control experiment (Mann-Whitney U-test). • Figure 2 provides a graphical representation of the effect of small peptide somatostatin analogs on 1% mustard oil-induced acute neurogenic plasma protein extravasation in the dorsal skin of the rat paw. Each column represents the mean±s.e.m. Evans blue accumulation per g wet skin of n = 6-10 experiments. Analogs were injected i.p. (100 µg/kg) 10 min before the induction of the inflammation. *P<0.05 vs. solvent-treated control experiment (Mann-Whitney U-test).\nThe activities of the above described synthetic somatostatin analogs were determined by means of an in vitro pharmacological assay on the release of the sensory neuropeptide CGRP from the peripheral terminals of sensory nerves of the isolated rat trachea. This experimental model was established more than 10 years ago (Helyes et al. (1997) Br. J. Pharmacol. 121, 613-615; Szolcsányi et al. (1998) Br. J. Pharmacol. 123, 936-942; Szolcsányi et al. (1998) Br. J. Pharmacol. 125, 916-922; Helyes et al. (2004) Arthr. Rheum., 50, 1677-1685; Bölcskei et al. (2005) Pain 117, 368-376; Helyes et al. (2007) Am. J. Physiol. Lung Cell. Mol. Physiol. 292, L1173-81; Nemeth et al. (1998) Eur. J. Pharmacol, 347, 101-104.) and it represents a reliable and sensitive technique for the investigation of drug effects at the level of peripheral nerve endings. Electrical field stimulation parameters are used to induce CGRP release that is selective for capsaicin-sensitive afferents. Since CGRP is an important mediator of neurogenic inflammation, the effectiveness of compounds in decreasing its electrically-evoked release in vitro may be seen as an indicator for effectiveness to inhibit neurogenic inflammatory reactions in vivo.\nExperiments were performed on male Wistar rats bred and kept in the Laboratory Animal Centre of the University of Pécs under standard pathogen free conditions at 24-25 °C and provided with standard rat chow and water ad libitum. The method has been described in detail elsewhere (Helyes et al. (1997) Br. J. Pharmacol. 121, 613-615; Nemeth et al. (1998) Eur. J. Pharmacol. 347, 101-104.). In brief, rats were exsanguinated in deep anesthesia (sodium thiopental, 50 mg/kg i.p.), then the whole trachea was removed and cleaned of fat and adhering connective tissues. Tracheae from two rats were placed into the same organ bath (1.8 ml) to achieve sufficient amount of peptide release and perfused (1 ml/min) with pH- (7.2) controlled oxygenized Krebs solution for 60 min (equilibration period) at 37 °C temperature. After discontinuation of the flow, the solution was changed three times for eight minutes to produce prestimulated, stimulated, poststimulated fractions. In the second 8-min period electrical field stimulation (EFS; 40 V, 0.1 ms, 10 Hz for 120 s; 1200 pulses) was performed to elicit neurotransmitter release. Concentration of CGRP was determined from 200 µL samples of the incubation medium by a selective and specific radioimmunoassay (RIA) technique as described previously in detail (Nemeth et al., 1996; Helyes et al., 1997; Nemeth et al., 1998; Nemeth et al., 1999). Peptide outflow was expressed as the released amount per wet tissue weight. Detection limit of the assay was 0.2 fmol/tube. […]"}, "[5]": {"conditions": "cited from earlier work", "remark": "listed apart in the source"}}, "note": "Marks after values point to notes of the source that are not given here."}
{"compound": "CC(C)[C@@H]1NC(=O)[C@H](CCCCN)NC(=O)[C@@H](Cc2c[nH]c3ccccc23)NC(=O)[C@H](Cc2ccc(O)cc2)NC(=O)[C@H](C)N(C)C(=O)[C@H](Cc2ccccc2)NC1=O", "note": "[MK-678-0, c(-MeAYwKVF-)]", "values": [{"measurement": "stability in the blood and in the gastrointestinal tract", "setting": "[1]", "result": "quite stable"}, {"measurement": "bioavailability after oral administration", "setting": "[2]", "result": "1-3%"}]}
{"compound": "CC(C)[C@@H]1NC(=O)[C@H](CCCCN)N(C)C(=O)[C@@H](Cc2c[nH]c3ccccc23)N(C)C(=O)[C@H](Cc2ccc(O)cc2)NC(=O)[C@H](C)N(C)C(=O)[C@H](Cc2ccccc2)N(C)C1=O", "note": "[MK-678-1, cyclo(-MeAla-Tyr-D-MeTrp-MeLys-Val-MePhe-)]", "values": [{"measurement": "µg Evans blue/g wet tissue (mean±s.e.m.)", "setting": "[3]", "result": "90.06±10.4* µg Evans blue/g wet tissue"}, {"measurement": "CGRP outflow in the poststimulated fraction", "setting": "[4]; poststimulated fraction", "result": "completely abolished"}, {"measurement": "EFS-evoked increase in the outflow of CGRP", "setting": "[4]", "result": "significantly inhibited"}, {"measurement": "inhibitory action on CGRP outflow in the stimulated period", "setting": "[4]; stimulated fraction, EFS 1200 pulses", "result": "about 70%"}, {"measurement": "CGRP release in % compared to the prestimulated fraction", "setting": "[4]", "result": "99,58 ± 39,89** %"}]}
{"compound": "CC(C)[C@@H]1NC(=O)[C@H](CCCCN)N(C)C(=O)[C@@H](Cc2c[nH]c3ccccc23)N(C)C(=O)[C@H](Cc2ccc(O)cc2)NC(=O)[C@H](C)N(C)C(=O)[C@H](Cc2ccccc2)NC1=O", "note": "[MK-678-2, cyclo(-MeAla-Tyr-D-MeTrp-MeLys-Val-Phe-)]", "values": [{"measurement": "µg Evans blue/g wet tissue (mean±s.e.m.)", "setting": "[3]", "result": "119.92±32.7 µg Evans blue/g wet tissue"}, {"measurement": "EFS-evoked increase in the outflow of CGRP", "setting": "[4]", "result": "significantly inhibited"}, {"measurement": "CGRP release in % compared to the prestimulated fraction", "setting": "[4]", "result": "153,12 ± 29,72* %"}]}
{"compound": "CC(C)[C@@H]1NC(=O)[C@H](CCCCN)N(C)C(=O)[C@@H](Cc2c[nH]c3ccccc23)NC(=O)[C@H](Cc2ccc(O)cc2)NC(=O)[C@H](C)N(C)C(=O)[C@H](Cc2ccccc2)NC1=O", "note": "[MK-678-3, cyclo(-MeAla-Tyr-D-Trp-MeLys-Val-Phe-)]", "values": [{"measurement": "µg Evans blue/g wet tissue (mean±s.e.m.)", "setting": "[3]", "result": "127.13±23.0 µg Evans blue/g wet tissue"}, {"measurement": "EFS-evoked increase in the outflow of CGRP", "setting": "[4]", "result": "significantly inhibited"}, {"measurement": "CGRP release in % compared to the prestimulated fraction", "setting": "[4]", "result": "181,57 ± 54,17* %"}]}
{"compound": "Somatostatin", "values": [{"measurement": "half life in serum", "setting": "[5]", "result": "< 3", "unit": "min"}]}
